Data set [1] deals with patients, who suffered from cerebrovascular dementia or Alzheimer's type senile dementia with Parkinson's disease as a complication. The experiment in a line: Clinical administration of DBcAMP by intravenous drip infusion to dementia patients. In kind it is in vivo. As to conditions: for Side effect / Progress after administration and evaluation (symptom/ condition): 300 mg/day intravenous drip infusion for 8 hours. On the procedure: 300 mg of sodium N⁶-2'-0-dibutyryladenosine-3',5'-cyclic phosphate (hereinafter, abbreviated as DBcAMP) was dissolved in a saline and administered to five patients, who suffered from cerebrovascular dementia or Alzheimer's type senile dementia with Parkinson's disease as a complication, by intravenous drip infusion for approximately 8 hours per day continuously.
These patients gave no response to a call and their intellectual level was decreased. […] Therefore, it was recognized that these patients suffered from serious dementia.

The next data set in a line: Acute toxicity in rats. As to conditions: in vivo, iv; rat, intravenously injected; read-out: LD₅₀. On the procedure: The cAMP derivative of formula (I) and a salt thereof were administered to rats in order to examine the acute toxicities of these compounds.
(§1) DBcAMP was intravenously injected into rats and mice to thereby examine the acute toxicity thereof. As a result, LD₅₀ of this compound to rat was 459 mg/kg while that to mouse was 545 mg/kg.

The nature of another data set: Acute toxicity in mice. As to conditions: in vivo, iv; mouse, intravenously injected; read-out: LD₅₀. The method, then: as §1
Setting [2] is: Test 2: patient five, Cerebrovascular dementia.

We go through one compound from EP0464206A1, “DRUG FOR IMPROVING BRAIN FUNCTION” (DAIICHI PHARMACEUTICAL CO., LTD., priority 1989, dated 1990).

In the case of `CCCC(=O)Nc1ncnc2c1ncn2[C@@H]1O[C@@H]2COP(=O)(O)O[C@H]2[C@H]1OC(=O)CCC` [DBcAMP, sodium N⁶-2'-0-dibutyryladenosine-3',5'-cyclic phosphate], the Side effect entry in data set [1] (Test 1: patient three, Alzheimer's type dementia) was “None”; in data set [1] (setting [2]), “None”; in data set [1] (Test 3: patient four, Cerebrovascular dementia), “None”; in data set [1] (Test 4: patient two, Alzheimer's type dementia), “None”; in data set [1] (Test 5: patient one, Cerebrovascular dementia, multiple cerebral infarct), “None”. Also, the “Progress after administration and evaluation (symptom/ condition)” value was “Showed "Yes" or "No" for simple question by shaking head 1 week after the administration. No speech but groan. Remarkable improvement in symptoms caused by a decline in brain function, compared before the administration” in data set [1] (setting [2]); “Groaned in night from the second day of the administration, after a year's silence. Groaning became larger thereafter. Improvement in various symptoms caused by a decline in brain function” in data set [1] (Test 3: patient four, Cerebrovascular dementia (with Parkinson's disease)); “Answered to call 1 week after the administration. Soliloquized in night. Remarkable improvement in symptoms caused by a decline in brain function” in data set [1] (Test 4: patient two, Alzheimer's type dementia (with Parkinson's disease)). Moreover, the “symptoms of the complicated Parkinson's disease” value in data set [1] (five patients, 300 mg/day intravenous drip infusion) was “disappearance of oily skin and reduced myosclerosis”. The LD50 came out at 459 mg/kg in “Acute toxicity in rats” and 545 mg/kg in “Acute toxicity in mice”.
